In general, IC50 refers to the concentration that gives 50% inhibition.

Each structure is given as a SMILES string. Several values for one entry are separate records, joined by “and”; a condition that tells them apart may be missing. Identical values can stand only once. Like-named read-outs stand apart in the source and are kept apart here.

In data set [1] the test system is PRMT5. As to conditions: cited from earlier work; for selectivity for PRMT5: versus PRMT1, CARM1, or PRMT7.
The target of data set [2] is T1, PRMT5 (Homo sapiens, UniProt O14744).
T1 construct: His6; made in house; host or cells: E. coli BL21(ED3) [sic]
T1 sequence (O14744 whole entry): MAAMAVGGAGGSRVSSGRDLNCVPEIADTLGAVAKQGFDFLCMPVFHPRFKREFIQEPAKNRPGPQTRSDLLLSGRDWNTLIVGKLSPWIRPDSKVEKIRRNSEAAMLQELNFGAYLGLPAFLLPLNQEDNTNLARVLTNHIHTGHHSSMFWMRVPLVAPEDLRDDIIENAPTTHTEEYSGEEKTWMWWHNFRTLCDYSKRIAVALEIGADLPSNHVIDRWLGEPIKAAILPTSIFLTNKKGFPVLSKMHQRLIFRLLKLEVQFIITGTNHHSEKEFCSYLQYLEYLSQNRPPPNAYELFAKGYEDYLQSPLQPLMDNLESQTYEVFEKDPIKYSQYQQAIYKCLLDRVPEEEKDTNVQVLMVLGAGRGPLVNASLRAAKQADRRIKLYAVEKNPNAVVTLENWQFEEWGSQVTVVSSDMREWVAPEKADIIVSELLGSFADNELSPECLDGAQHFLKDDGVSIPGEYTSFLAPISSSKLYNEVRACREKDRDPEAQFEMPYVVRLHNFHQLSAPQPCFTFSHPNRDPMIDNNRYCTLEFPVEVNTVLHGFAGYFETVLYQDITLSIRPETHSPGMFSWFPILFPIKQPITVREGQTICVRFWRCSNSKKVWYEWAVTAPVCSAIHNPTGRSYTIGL
The experiment in a line: Radioactive methyltransferase assay, PRMT5. Type of data set: biochemical. As to conditions: methylation of SmD3 by PRMT5; Table 1 prints no unit, μM; read-out: IC50. Here is the method: (§1) Methylation reactions were performed as previously described with a few modifications. Reaction mixtures (40 μl) containing 1.2 μg of PRMT5, 98 ng of PRMT1 or 98 ng of PRMT3; 2 μg of SmD3 or histones; 1 μCi of S-[methyl-^3H]adenosylmethionine (H^3-AdoMet; PerkinElmer); and 5 μM AdoMet were incubated in 50 mM Tris-HCl (pH 7.5)–1 mM EGTA–1 mM EDTA at 30°C for 2 h. Reaction mixtures (20 μl) were boiled in 5 μl of 5x SDS sample buffer and separated on a 15% polyacrylamide gel. Gels were fixed for 30 min in 40% methanol–10% acetic acid, incubated in 20 ml of Amplify (Amersham Life Science) for 10 min, dried and exposed to X-ray film at -80°C. IC50 was calculated by linear regression analysis of percent inhibition. The other half (20 μl) of each reaction mixture was spread onto DE81 chromatography paper discs (Whatman). The paper discs were washed 4 times with 50 mM NaHCO3 and dried. The amounts of methylated products were quantified by liquid scintillation.
In vitro methylation reactions were performed with recombinant PRMT5 (1.2 μg), PRMT1 ([…]) or PRMT3 (89 ng); [H^3]-AdoMet; and different substrates in the presence of identified compounds. […] The recombinant SmD3 (2 μg) was used as the substrate in the absence (lane 2) or presence of 1, 10 or 100 μM compounds as indicated. Reaction mixtures were separated on an SDS–15% polyacrylamide gel and the gel was dried under vacuum and exposed to film. […] Recombinant histones H4 or H2A (1 μg) were used as substrates of PRMT5 in the methylation assay in the absence or presence of 100 μM compounds as indicated. Reaction mixtures were spread onto DE81 chromatography paper discs. After a wash, the amounts of methylated products on discs were quantified by liquid scintillation. […] PRMT1 was incubated with purified histones (1 μg) or recombinant E2F1 (1 μg) as substrates in the absence (lane 2) or presence of 100 μM compounds as indicated. Reaction mixtures were separated on an SDS–15% polyacrylamide gel and the gel was dried and exposed to film.

Data set [3] deals with T2, PRMT5 F225M (Homo sapiens, UniProt O14744, F327M).
T2 construct: His6; made in house; host or cells: bacteria (E. coli BL21(ED3) for the wild type)
T2 sequence (O14744 whole entry F327M): as the sequence (O14744 whole entry) above, with F327M counted along it
Description: Radioactive methyltransferase assay, mutant PRMT5. Type of data set: biochemical. As to conditions: F225M mutant PRMT5, SmD3 substrate, Fig 4D. The procedure:
as §1
(§2) The inhibitory activity of the compounds may stem from this interaction. To test this possibility, we conducted site-directed mutagenesis to mutate Phe225 in human PRMT5 (corresponding to Phe379 in the C. elegans PRMT5) to Met. The mutated PRMT5 was expressed in bacteria and purified by Ni-nitrilotriacetic acid (Ni-NTA) affinity chromatography (Fig 4A). The activity of the mutant PRMT5 was examined by the radioactive methyltransferase assay. […] The IC50 values for the mutant PRMT5 increased from 4.3 to 183 folds higher than those for the wild type PRMT5 (Fig 4D). […] The results also can help explain the specificity of the compounds to PRMT5. However, the contribution of this interaction to inhibition varies among the compounds. For example, compound C2 interacts with three amino acid residues (Lys451, Glu450, and Phe379) (Fig 3A) with the mutation of Phe to Met resulting in a 50-times higher IC50 (Fig 4C and 4D).
(§3) Fig 4 The conserved phenylalanine residue in PRMT5 is critical for inhibition by the five compounds. A, DS-PAGE of recombinant wild type (WT) and F225M mutant (MT) PRMT5. The gel was stained with Coomassie Brilliant Blue R250. A band corresponding to an unknown bacterial protein is indicated (star). B, The F225M mutation increased the methytransferase activity of PRMT5. In vitro methylation reactions were performed with recombinant wild type (lanes 2–4) or mutant (lanes 5–7) PRMT5 (1.2, 2.4 or 4.8 μg) and SmD3 (2 μg) as the substrate. C, The F225M mutation in PRMT5 decreased inhibition of arginine methylation by the compounds. The reaction mixture contained SmD3 (2 μg); wild type or mutant PRMT5 (1.2 μg); and 1, 10 or 100 μM compounds as indicated. D, The F225M mutation in PRMT5 […] of the compounds, as determined by quantitation and analysis of methylation assay results. TEXT PRINTED IN THE PICTURE: (D) C2: IC50 (μM) PRMT5: 0.1; IC50 (μM) PRMT5 F225M: 5.0 | (D) C5: IC50 (μM) PRMT5: 0.8; IC50 (μM) PRMT5 F225M: 3.5 | (D) C6: IC50 (μM) PRMT5: 0.5; IC50 (μM) PRMT5 F225M: 7.0 | (D) C9: IC50 (μM) PRMT5: 6.0; IC50 (μM) PRMT5 F225M: 45.0 | (D) C11: IC50 (μM) PRMT5: 0.3; IC50 (μM) PRMT5 F225M: 55.0

In data set [4] the test system is PRMT5 F225M. Description: Radioactive methyltransferase assay, mutant PRMT5. The note with it: Phe225 to Met. It is filed as biochemical, human. The procedure:
as §1, §2, §3

Data set [5] concerns the target T1, PRMT5. The experiment in a line: Steady-state kinetic analysis of PRMT5 inhibition (time-dependent inhibition assay). Type of data set: biochemical. Here is the method:
Different amounts of compound C2 or C5 were present in the final methylation reaction mixtures with 1.2 μg of PRMT5, 5 μM AdoMet, 2 μCi of H^3-AdoMet and various concentrations of SmD3. After a 10-, 20- or 30-min incubation at 30 °C or no incubation, the reaction mixtures were spread onto DE81 chromatography paper discs and the amounts of methylated products were quantified by liquid scintillation. Amounts (counts per minute [cpm]) of methylated products and incubation time (minutes) were plotted and reaction velocity (cpm per minute) was deduced.
To understand the mechanism of inhibition of identified compounds, we analyzed the kinetic pattern of inhibition using steady-state enzymatic measurements. The velocities of PRMT5 methylation of SmD3 were measured at several selected concentrations of compounds C2 and C5 over a range of SmD3 concentrations. Plotted in the double-reciprocal format with 1/velocity versus 1/[SmD3]
Fig 5 Steady-state kinetic analysis of PRMT5 inhibition by compounds C2 and C5. Double-reciprocal plot of reaction velocities (cpm per minute) versus concentrations of SmD3. Methylation reaction mixtures contained various concentrations of C2 (left) or C5 (right), various concentrations of SmD3, 1.2 μg of PRMT5 and 5 μM AdoMet. The mixtures were incubated for different times and the amounts of methylated products were quantified using DE81 paper and liquid scintillation. Reaction velocity was calculated as H^3 incorporation (cpm) into SmD3 per minute.

Data set [6] deals with A549 cells. The experiment in a line: Cellular permeability and stability by HPLC of cell extracts. Type of data set: in vitro ADME. The note with it: 2 hr in medium with compound. The procedure: Waters 2695 HPLC System and a C18 column (Symmetry, 3.6 x 75 mm) were used. The column was equilibrated with 10% acetonitrile and eluated with a linear gradient from 10% acetonitrile to 100% acetonitrile in 60 min. Compounds were dissolved in 10% acetonitrile and the purchased compounds (ChemBridge) were used as the standards.
We then determined whether the identified compounds are cell-permeable. Lung cancer A549 cells were cultured in medium containing various concentrations of the respective compound for 2 hr. Cells were harvested and washed with PBS. The compounds were extracted with ethyl acetate from cells and analyzed by HPLC with a C18 column using the purchased compound as the standard. Compounds C2, C5, C9 and C11 are cell-permeable (Fig 6A), which is consistent with their tPSAs <140 angstroms square (Table 1). […] We even noticed that the compound C5 crystalized inside the cells.
A, The cellular permeability of identified compounds. Lung cancer A549 cells were cultured in the presence of various concentrations of compounds for 2h and the compound concentrations in the cell were determined by HPLC chromatography with a C18 column. B, The cellular stability of identified compounds. Lung cancer A549 cells were cultured in the presence of compounds (20 μM) for 2 h and then the medium was removed. Cells were washed with the medium and cultured for additional 5 or 10 h after the compounds were removed. The compound concentrations in the cell were determined by HPLC chromatography with a C18 column. […] A549 cells were grown in the presence of DMSO or compound C5, C9 or C11 (20 μM). Histones were purified and analyzed by SDS-PAGE stained with Commassie blue (lanes 1–4, bottom) or by Western blot with anti-symmetric dimethyl arginine antibody (SYM10) (lanes 1–4, top). B-Raf was immunoprecipitated with anti-B-Raf antibody from whole cell lysates and submitted for Western blot analysis with anti-B-Raf (lanes 5 and 6, bottom) or anti-symmetric dimethyl arginine (lanes 5 and 6, top) antibody.

The test system of data set [7] is MCL xenograft models. The arrangement: method as in PMID 25915199. The note with it: cited from earlier work.
In data set [8] the test system is PRMT5-target genes in A549 cells. Description: Real-time PCR of PRMT5-regulated genes. As to conditions: 50 μM, 24 hrs. It is filed as cell-based. Here is the method: We identified a set of genes whose expression was altered by silencing PRMT5 expression in lung cancer A549 cells. A549 cells were treated with C9a and EPZ015666 and expression of 6 identified PRMT5-regulated genes was analyzed. […] The future study would use genome-wide approach to determine genes whose expression is affected by PRMT5 inhibitors.
Supplementary file pone.0181601.s005.tif: S5 Fig PRMT5 inhibitors selectively affect PRMT5-target genes in lung cancer cells. RNAs were isolated from cells cultured in the presence of DMSO, EPZ015666 (Sigma-Aldrich) (50 μM), or C9a (50 μM) for 24 hrs and submitted to RT-RCR analysis of gene expression in cancer cell lines. Relative mRNA levels = mRNA in cells treated with PRMT5-inhibtor/mRNA in DMSo-treated cells. (TIF) Click here for additional data file.
Background: Quantitative PCR measures a nucleic acid by following its amplification.

Data set [9] has as its system CDK4/6 (Rb pS811) in A549 cells. The experiment in a line: Western blot of Rb phosphorylation at S811. It is filed as cell-based. As to conditions: 20 μM, 4 h. The text has this:
The retinoblastoma protein (Rb) is phosphorylated by CKDs in cells.
(TIF) Click here for additional data file.
On the technique in general: In western blotting, separated proteins are transferred to a membrane and probed.

The mark [10] stands for this setting: single replicate, vs control, actin-normalised, listed as EPZ.

With `CCn1c2ccccc2c2cc(CNCc3ccccn3)ccc21` [CMP5], the “selectivity for PRMT5” value in data set [1] was “specifically inhibited PRMT5 rather than PRMT1, CARM1, or PRMT7”.

Regarding `COc1nc(Nc2ccc(-c3nc4ccccc4o3)cc2)nc(OC)n1` [Compound C1], the IC50 in data set [2] was 0.5 µM.

`Cc1ccnc(NC(=O)c2ccc(COc3ccc(Cl)cc3)o2)c1` [Compound C2]: the IC50 in data set [3] was 5 µM; in [2] it was 0.1 µM. The “increase of IC50 for mutant PRMT5 over wild type PRMT5” value in data set [4] was determined as 50 fold. Further, in data set [5], the “mode of inhibition with regard to SAM” value is given as “not competitive inhibitors”. Further, in [5] (double-reciprocal plot), the “mode of inhibition with regard to the SmD3 substrate” value is on record as “competitive inhibitors”. Further, the cell permeability entry in data set [6] is “cell-permeable”.

As for `Nc1c(C(=O)Nc2ccccc2)sc2nc3c(cc12)CCC3` [Compound C4], in data set [2], the IC50 is 0.6 µM.

As for `CCc1ccc(-c2cn3c4ccccc4nc3n2CCN2CCOCC2)cc1` [Compound C6], the IC50 was 7 µM in [3] and 0.5 µM in data set [2]. Further, in data set [6], the cell permeability result was “not cell-permeable”.

In the case of `O=C(Nc1nccs1)c1ccc(COc2ccc(F)cc2)o1` [Compound C7], the concentration for half-maximal inhibition (IC50) in [2] was 2.5 µM.

Consider `CCNC(=O)NCCSC[C@H]1O[C@@H](n2cnc3c(N)ncnc32)[C@H](O)[C@@H]1O` [DS-437], for which, in data set [1] (AdoMet competitor, cofactor-binding site), the IC50 was 6000 nM.

On to `O=C(NC[C@H](O)CN1CCc2ccccc2C1)c1cc(NC2COC2)ncn1` [EPZ015666, reference compound], for which, in [7], the antitumor activity entry is given as “demonstrated antitumor activity in multiple MCL xenograft models”. Moreover, in [1], the IC50 was […]. Further, in data set [8] (average), the “EXPRESSION FOLD CHANGE avg BTG2” value was […], the “EXPRESSION FOLD CHANGE avg FGFR1” value is […], the “EXPRESSION FOLD CHANGE avg FOXO3” value is […] and the “EXPRESSION FOLD CHANGE avg GLIPR1” value is […]. Further, in data set [8] (average), the “EXPRESSION FOLD CHANGE avg PTTG1” value came out at […] and the “EXPRESSION FOLD CHANGE avg TIGAR” value is […]. Further, in data set [8] (setting [10]), the “EXPRESSION FOLD CHANGE BTG2” value was […]; the “EXPRESSION FOLD CHANGE FGFR1” value was […]; the “EXPRESSION FOLD CHANGE FOXO3” value is […]; the “EXPRESSION FOLD CHANGE GLIPR1” value is […]. In [8] (setting [10]), the “EXPRESSION FOLD CHANGE PTTG1” value is […]; the “EXPRESSION FOLD CHANGE TIGAR” value was […].

As to `CCn1c2ccccc2c2cc(CNCc3ccccc3OC)ccc21.Cl` [HLCL-61], the “selectivity for PRMT5” value in data set [1] is recorded as “specifically inhibited PRMT5 rather than PRMT1, CARM1, or PRMT7”.

For `CC(=O)c1c(C)c2cnc(Nc3ccc(N4CCNCC4)cn3)nc2n(C2CCCC2)c1=O` [Palbociclib, reference compound], the “Rb phosphorylation at the site S811 by CDK4/6” value in data set [9] was “inhibited”.

Source of the values: article PMC5555576, “Selective small-chemical inhibitors of protein arginine methyltransferase 5 with anti-lung cancer activity” (PLoS ONE, 2017).
